From PMC3395614, “Functional Evolution of Mammalian Odorant Receptors” (PLoS Genetics, 2012) come the findings set out here.

Test [1] concerns the target T1, h51E1 (Homo sapiens, UniProt Q8TCB6).
T1 construct: gene OR51E1
Nature of the test: cell-based. More on the design: species or system Hana3A; cAMP-mediated luciferase reporter dose-response of odorant receptor orthologs and paralogs. The source says:
(§1) Figure 6 Dose-response curves of OR orthologs and paralogs to a given ligand. (A) OR5K1 orthologs and 5 K subfamily to eugenol methyl ether. (B) OR8D1 orthologs and 8D subfamily members to 4,5-dimethyl-3-hydroxy-2,5-dihydrofuran-2-one. […] X-axis is the concentration of a given odor in Log Molar. Y-axis is normalized response (n = 3, ± S.E.M.). Human (h), chimpanzee (c) and rhesus macaque (m), mouse receptors (m+number); para indicates a receptor that is a paralog to the human reference OR. Vector control is Rho-pCI. See Figure S11 for additional dose-response data from orthologs and subfamily members. Supplementary file pgen.1002821.s018.pdf: Table S5 Comparison of dose-response curves from orthologs and paralogs. LogEC50 (M), Span (dynamic-range) for each OR is given. […] F-ratio and p-values from extra sum-of-squares test. (PDF) Click here for additional data file.  Figure 2 Response of OR orthologs to 42 chemically diverse odors. (A) Tuning curves of human, chimp and macaque OR2W1 orthologs tested against 42 odors using a cAMP-mediated luciferase assay. Odorants are ordered along the x-axis according to the response elicited from the human OR2W1, with the best ligands closer to the center. Y-axis represents the luciferase response to an odor at 100 µM (n = 3, ± S.E.). Negative values on the y-axis indicate the odor elicited an inhibitory response on OR signaling. See Figure S6 for additional tuning curves. (B) Response of chimp and macaque OR2W1 orthologs (variant responses) plotted against the human OR2W1 response using the data from (A). X-axis and y-axis are response in luciferase assay at 100 µM (n = 3, ± S.E.). The black line represents the unit-slope line. Odor abbreviations in Table S3.

For test [2], the target named is T2, h10J1 (Homo sapiens, UniProt P30954).
T2 construct: gene OR10J1
Nature of the test: cell-based. Also noted: species or system Hana3A; cAMP-mediated luciferase reporter dose-response of odorant receptor orthologs and paralogs.
Excerpt: as §1

Test [3] concerns the target T3, h10J5 (Homo sapiens, UniProt Q8NHC4).
T3 construct: gene OR10J5
Description: cell-based. Also noted: species or system Hana3A; cAMP-mediated luciferase reporter dose-response of odorant receptor orthologs and paralogs.
Excerpt: as §1

Test [4] addresses T4, MOR267-13 (Mus musculus, UniProt Q62007).
T4 construct: gene Or10j5
Nature of the test: cell-based. More on the design: species or system Hana3A; cAMP-mediated luciferase reporter assay of odorant receptor activation, dose-response, orthologs and paralogs. Conditions: ortholog and paralog set. The procedure: Figure 2 Response of OR orthologs to 42 chemically diverse odors. (A) Tuning curves of human, chimp and macaque OR2W1 orthologs tested against 42 odors using a cAMP-mediated luciferase assay. Odorants are ordered along the x-axis according to the response elicited from the human OR2W1, with the best ligands closer to the center. Y-axis represents the luciferase response to an odor at 100 µM (n = 3, ± S.E.). Negative values on the y-axis indicate the odor elicited an inhibitory response on OR signaling. See Figure S6 for additional tuning curves. (B) Response of chimp and macaque OR2W1 orthologs (variant responses) plotted against the human OR2W1 response using the data from (A). X-axis and y-axis are response in luciferase assay at 100 µM (n = 3, ± S.E.). The black line represents the unit-slope line. Odor abbreviations in Table S3. Figure 6 Dose-response curves of OR orthologs and paralogs to a given ligand. (A) OR5K1 orthologs and 5 K subfamily to eugenol methyl ether. (B) OR8D1 orthologs and 8D subfamily members to 4,5-dimethyl-3-hydroxy-2,5-dihydrofuran-2-one. […] X-axis is the concentration of a given odor in Log Molar. Y-axis is normalized response (n = 3, ± S.E.M.). Human (h), chimpanzee (c) and rhesus macaque (m), mouse receptors (m+number); para indicates a receptor that is a paralog to the human reference OR. Vector control is Rho-pCI. […]

The target in test [5] is T5, h10G3 (Homo sapiens, UniProt Q8NGC4).
T5 construct: gene OR10G3
Description: cell-based. Also noted: species or system Hana3A; cAMP-mediated luciferase reporter dose-response of odorant receptor orthologs and paralogs.
Excerpt: as §1

Test [6] has as its target T6, h56A4 (Homo sapiens, UniProt Q8NGH8).
T6 construct: gene OR56A4
Nature of the test: cell-based. Also noted: species or system Hana3A; cAMP-mediated luciferase reporter dose-response of odorant receptor orthologs and paralogs.
Excerpt: as §1

Test [7] addresses T7, h56A1 (Homo sapiens, UniProt Q8NGH5).
T7 construct: gene OR56A1
Nature of the test: cell-based. Also noted: species or system Hana3A; cAMP-mediated luciferase reporter dose-response of odorant receptor orthologs and paralogs.
Excerpt: as §1

Test [8] concerns the target T8, h56A5 (Homo sapiens, UniProt P0C7T3).
T8 construct: gene OR56A5
Description: cell-based. More on the design: species or system Hana3A; cAMP-mediated luciferase reporter dose-response of odorant receptor orthologs and paralogs.
Excerpt: as §1

Test [9] addresses T9, chimp OR8D1 (Pan troglodytes, UniProt A0A2J8N1S1).
T9 construct: gene LOC466828; full-length ORF from genomic DNA, N-terminal Rho-tag, Hana3A cells with human RTP1S
Description: cell-based. Also noted: species or system Hana3A; cAMP-mediated luciferase reporter dose-response of odorant receptor orthologs and paralogs.
Excerpt: as §1

The target of test [10] is T9, chimp OR8D1. Description: cAMP-mediated CRE-luciferase reporter dose-response, Hana3A cells. It counts as cell-based. Conditions: agonist; human RTP1S and M3 receptor co-expressed; odor 10 nM to 10 mM.
Test [11] concerns the target human OR51L1 (Homo sapiens, UniProt Q8NGJ5). Nature of the test: cell-based. Also noted: species or system Hana3A; cAMP-mediated luciferase reporter assay of odorant receptor activation, dose-response, ortholog pairs. Conditions: ortholog set. The procedure: (§2) Figure 2 Response of OR orthologs to 42 chemically diverse odors. (A) Tuning curves of human, chimp and macaque OR2W1 orthologs tested against 42 odors using a cAMP-mediated luciferase assay. Odorants are ordered along the x-axis according to the response elicited from the human OR2W1, with the best ligands closer to the center. Y-axis represents the luciferase response to an odor at 100 µM (n = 3, ± S.E.). Negative values on the y-axis indicate the odor elicited an inhibitory response on OR signaling. See Figure S6 for additional tuning curves. (B) Response of chimp and macaque OR2W1 orthologs (variant responses) plotted against the human OR2W1 response using the data from (A). X-axis and y-axis are response in luciferase assay at 100 µM (n = 3, ± S.E.). The black line represents the unit-slope line. Odor abbreviations in Table S3. We next wanted to examine the functional changes in sensitivity of orthologs to individual ligands by testing each ortholog across a range of concentrations. We selected a single odor for a given OR to construct a representative dose-response curve, fit the data to a sigmoid curve, and then compared the response of the human allele against the primate orthologs and the mouse allele with the rat ortholog using an extra sum of squares test. […]

Test [12] deals with T10, chimp OR8K3 (Pan troglodytes, UniProt A0A2J8LC19).
T10 construct: gene LOC466557; full-length ORF from genomic DNA, N-terminal Rho-tag, Hana3A cells with human RTP1S
Nature of the test: cAMP-mediated CRE-luciferase reporter dose-response, Hana3A cells. It counts as cell-based. Conditions: agonist; human RTP1S and M3 receptor co-expressed; odor 10 nM to 10 mM.

Test [13] deals with T10, chimp OR8K3. Nature of the test: cell-based. More on the design: species or system Hana3A; cAMP-mediated luciferase reporter dose-response of odorant receptor orthologs and paralogs.
Excerpt: as §1

Test [14] deals with T11, mouse MOR256-17 (Mus musculus, UniProt P23275).
T11 construct: gene Or2c1
Nature of the test: cell-based. More on the design: species or system Hana3A; cAMP-mediated luciferase reporter assay of odorant receptor activation, dose-response, ortholog pairs. Conditions: ortholog set. As to the method:
as §2

Test [15] has as its target T12, h5P3 (Homo sapiens, UniProt Q8WZ94).
T12 construct: gene OR5P3
Nature of the test: cell-based. More on the design: species or system Hana3A; cAMP-mediated luciferase reporter dose-response of odorant receptor orthologs and paralogs.
Excerpt: as §1

For test [16], the target named is T13, h2B11 (Homo sapiens, UniProt Q5JQS5).
T13 construct: gene OR2B11
Nature of the test: cell-based. Also noted: species or system Hana3A; cAMP-mediated luciferase reporter dose-response of odorant receptor orthologs and paralogs.
Excerpt: as §1

Test [17] concerns the target T14, h10G4 (Homo sapiens, UniProt Q8NGN3).
T14 construct: gene OR10G4
Nature of the test: cell-based. Also noted: species or system Hana3A; cAMP-mediated luciferase reporter dose-response of odorant receptor orthologs and paralogs.
Excerpt: as §1

In test [18] the target is T15, h10G9 (Homo sapiens, UniProt Q8NGN4).
T15 construct: gene OR10G9
Nature of the test: cell-based. Also noted: species or system Hana3A; cAMP-mediated luciferase reporter dose-response of odorant receptor orthologs and paralogs.
Excerpt: as §1

Test [19] deals with T16, chimp OR5K1 (Pan troglodytes, UniProt A0A2J8MY22).
T16 construct: gene LOC470870; full-length ORF from genomic DNA, N-terminal Rho-tag, Hana3A cells with human RTP1S
Nature of the test: cAMP-mediated CRE-luciferase reporter dose-response, Hana3A cells. It counts as cell-based. Conditions: agonist; human RTP1S and M3 receptor co-expressed; odor 10 nM to 10 mM.

The target of test [20] is T17, h2J3 (Homo sapiens, UniProt O76001).
T17 construct: gene OR2J3
Description: cell-based. Also noted: species or system Hana3A; cAMP-mediated luciferase reporter dose-response of odorant receptor orthologs and paralogs.
Excerpt: as §1

The target in test [21] is T18, h2J1 (Homo sapiens, UniProt Q9GZK6).
T18 construct: gene OR2J1
Nature of the test: cell-based. Also noted: species or system Hana3A; cAMP-mediated luciferase reporter dose-response of odorant receptor orthologs and paralogs.
Excerpt: as §1

The target of test [22] is T19, OR2J2 (human) (Homo sapiens, UniProt O76002).
T19 construct: full-length ORF from genomic DNA, N-terminal Rho-tag, Hana3A cells with human RTP1S
T19 sequence (O76002 1-312): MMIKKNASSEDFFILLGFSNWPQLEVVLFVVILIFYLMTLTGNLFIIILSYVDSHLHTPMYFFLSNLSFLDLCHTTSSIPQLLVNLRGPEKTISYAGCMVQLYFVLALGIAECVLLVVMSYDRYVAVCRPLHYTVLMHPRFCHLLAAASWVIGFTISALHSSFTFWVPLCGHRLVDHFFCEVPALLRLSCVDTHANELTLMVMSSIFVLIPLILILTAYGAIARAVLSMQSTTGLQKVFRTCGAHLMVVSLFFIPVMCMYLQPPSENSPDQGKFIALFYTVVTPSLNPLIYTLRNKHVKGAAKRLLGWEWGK
Nature of the test: cell-based. More on the design: species or system Hana3A; cAMP-mediated luciferase reporter dose-response of odorant receptor orthologs and paralogs.
Excerpt: as §1

Test [23] deals with T19, OR2J2 (human). Nature of the test: cAMP-mediated CRE-luciferase reporter dose-response, Hana3A cells. It counts as cell-based. To be noted: agonist; human RTP1S and M3 receptor co-expressed; odor 10 nM to 10 mM.
The target in test [24] is T20, h2A25 (Homo sapiens, UniProt A4D2G3).
T20 construct: gene OR2A25
Description: cell-based. More on the design: species or system Hana3A; cAMP-mediated luciferase reporter dose-response of odorant receptor orthologs and paralogs.
Excerpt: as §1

pEC50: −log10 of the molar value.

T10 sequence (A0A2J8LC19 1-312): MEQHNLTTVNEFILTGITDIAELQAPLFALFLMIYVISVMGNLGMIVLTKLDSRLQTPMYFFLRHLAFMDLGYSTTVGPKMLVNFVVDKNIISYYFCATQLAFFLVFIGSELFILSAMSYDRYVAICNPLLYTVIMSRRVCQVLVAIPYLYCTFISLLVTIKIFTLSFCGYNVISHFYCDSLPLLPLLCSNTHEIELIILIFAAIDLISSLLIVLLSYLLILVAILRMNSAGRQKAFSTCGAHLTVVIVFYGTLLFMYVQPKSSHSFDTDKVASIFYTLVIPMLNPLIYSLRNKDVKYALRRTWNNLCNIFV
T5 sequence (Q8NGC4 whole entry): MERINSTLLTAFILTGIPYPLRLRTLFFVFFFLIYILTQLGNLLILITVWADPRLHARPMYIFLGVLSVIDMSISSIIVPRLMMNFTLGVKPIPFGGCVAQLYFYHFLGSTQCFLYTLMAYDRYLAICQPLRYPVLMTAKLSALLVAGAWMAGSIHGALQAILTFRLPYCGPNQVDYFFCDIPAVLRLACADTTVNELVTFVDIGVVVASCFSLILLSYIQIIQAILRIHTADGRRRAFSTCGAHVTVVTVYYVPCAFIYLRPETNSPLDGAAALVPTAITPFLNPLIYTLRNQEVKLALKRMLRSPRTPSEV
T9 sequence (A0A2J8N1S1 1-308): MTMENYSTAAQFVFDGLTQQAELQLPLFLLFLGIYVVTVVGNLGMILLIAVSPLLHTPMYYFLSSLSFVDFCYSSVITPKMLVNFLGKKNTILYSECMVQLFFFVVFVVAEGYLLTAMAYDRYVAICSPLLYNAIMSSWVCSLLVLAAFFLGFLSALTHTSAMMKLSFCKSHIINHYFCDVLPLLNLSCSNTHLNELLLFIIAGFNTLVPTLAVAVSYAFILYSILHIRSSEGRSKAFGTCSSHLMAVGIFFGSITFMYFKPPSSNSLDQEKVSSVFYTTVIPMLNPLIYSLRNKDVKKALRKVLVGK
T17 sequence (O76001 whole entry): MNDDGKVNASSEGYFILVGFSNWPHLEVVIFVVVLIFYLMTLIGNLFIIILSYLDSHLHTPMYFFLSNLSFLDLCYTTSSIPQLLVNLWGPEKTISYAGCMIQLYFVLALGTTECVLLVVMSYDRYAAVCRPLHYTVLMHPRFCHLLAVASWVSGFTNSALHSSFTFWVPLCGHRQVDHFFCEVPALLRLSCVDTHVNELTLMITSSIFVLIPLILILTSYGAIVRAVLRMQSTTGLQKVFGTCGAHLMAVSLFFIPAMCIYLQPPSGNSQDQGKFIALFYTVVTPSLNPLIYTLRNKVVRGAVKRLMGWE
T18 sequence (Q9GZK6 whole entry): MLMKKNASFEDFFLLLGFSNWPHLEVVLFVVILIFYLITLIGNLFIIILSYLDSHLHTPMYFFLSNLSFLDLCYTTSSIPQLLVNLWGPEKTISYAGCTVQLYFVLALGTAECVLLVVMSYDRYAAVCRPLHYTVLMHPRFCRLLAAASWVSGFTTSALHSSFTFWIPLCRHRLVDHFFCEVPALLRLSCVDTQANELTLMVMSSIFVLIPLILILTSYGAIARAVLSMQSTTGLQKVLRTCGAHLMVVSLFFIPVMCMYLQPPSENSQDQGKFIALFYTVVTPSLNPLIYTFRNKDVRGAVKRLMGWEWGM
T16 sequence (A0A2J8MY22 1-308): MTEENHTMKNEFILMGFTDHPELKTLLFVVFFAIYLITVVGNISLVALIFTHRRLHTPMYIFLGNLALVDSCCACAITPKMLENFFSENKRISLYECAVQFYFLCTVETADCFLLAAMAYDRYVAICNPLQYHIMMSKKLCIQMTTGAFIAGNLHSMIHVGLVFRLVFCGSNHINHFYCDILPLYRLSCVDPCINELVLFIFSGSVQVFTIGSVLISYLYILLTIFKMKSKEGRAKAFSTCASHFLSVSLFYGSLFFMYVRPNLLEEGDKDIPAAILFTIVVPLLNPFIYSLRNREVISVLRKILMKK
T2 sequence (P30954 whole entry): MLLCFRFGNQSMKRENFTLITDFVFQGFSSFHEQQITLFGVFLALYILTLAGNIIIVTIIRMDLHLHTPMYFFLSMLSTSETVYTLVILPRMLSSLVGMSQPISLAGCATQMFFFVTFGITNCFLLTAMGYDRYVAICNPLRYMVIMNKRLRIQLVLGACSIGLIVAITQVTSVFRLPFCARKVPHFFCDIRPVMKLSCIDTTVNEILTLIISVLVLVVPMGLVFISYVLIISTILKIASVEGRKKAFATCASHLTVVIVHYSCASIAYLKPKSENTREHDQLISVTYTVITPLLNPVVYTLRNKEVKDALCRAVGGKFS
T3 sequence (Q8NHC4 whole entry): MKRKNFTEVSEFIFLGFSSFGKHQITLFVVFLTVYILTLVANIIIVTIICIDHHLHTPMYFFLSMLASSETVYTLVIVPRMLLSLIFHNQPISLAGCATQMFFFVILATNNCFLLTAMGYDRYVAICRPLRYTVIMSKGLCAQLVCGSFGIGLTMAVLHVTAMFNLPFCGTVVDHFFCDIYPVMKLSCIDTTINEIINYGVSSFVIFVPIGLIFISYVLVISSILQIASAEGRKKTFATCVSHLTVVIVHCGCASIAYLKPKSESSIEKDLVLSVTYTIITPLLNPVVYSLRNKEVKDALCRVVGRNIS
T12 sequence (Q8WZ94 whole entry): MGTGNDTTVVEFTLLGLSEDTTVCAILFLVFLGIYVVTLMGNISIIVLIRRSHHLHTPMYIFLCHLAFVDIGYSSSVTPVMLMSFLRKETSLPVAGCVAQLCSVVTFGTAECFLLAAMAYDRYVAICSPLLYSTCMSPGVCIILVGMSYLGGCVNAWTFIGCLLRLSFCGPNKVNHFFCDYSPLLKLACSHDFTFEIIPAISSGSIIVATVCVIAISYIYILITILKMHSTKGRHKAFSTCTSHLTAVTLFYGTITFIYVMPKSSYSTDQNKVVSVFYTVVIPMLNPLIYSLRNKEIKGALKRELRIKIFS
T6 sequence (Q8NGH8 whole entry): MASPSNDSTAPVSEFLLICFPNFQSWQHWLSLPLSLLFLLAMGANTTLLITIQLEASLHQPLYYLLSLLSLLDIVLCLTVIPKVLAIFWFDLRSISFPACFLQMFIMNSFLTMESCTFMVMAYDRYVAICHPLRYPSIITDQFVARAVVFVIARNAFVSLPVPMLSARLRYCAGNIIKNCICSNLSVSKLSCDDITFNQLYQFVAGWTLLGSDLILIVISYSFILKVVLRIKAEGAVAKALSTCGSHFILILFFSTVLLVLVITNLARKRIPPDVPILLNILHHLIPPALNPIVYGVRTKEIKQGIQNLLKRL
T14 sequence (Q8NGN3 whole entry): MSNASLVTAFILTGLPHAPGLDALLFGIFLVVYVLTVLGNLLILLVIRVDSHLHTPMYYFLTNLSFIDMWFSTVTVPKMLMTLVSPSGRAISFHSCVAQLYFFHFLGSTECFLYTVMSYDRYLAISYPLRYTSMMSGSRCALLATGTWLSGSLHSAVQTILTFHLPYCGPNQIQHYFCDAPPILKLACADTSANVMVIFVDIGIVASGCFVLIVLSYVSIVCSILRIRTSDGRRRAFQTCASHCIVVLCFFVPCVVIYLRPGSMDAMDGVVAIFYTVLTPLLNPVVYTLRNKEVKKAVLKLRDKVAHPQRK
human OR51L1, sequence (Q8NGJ5 whole entry): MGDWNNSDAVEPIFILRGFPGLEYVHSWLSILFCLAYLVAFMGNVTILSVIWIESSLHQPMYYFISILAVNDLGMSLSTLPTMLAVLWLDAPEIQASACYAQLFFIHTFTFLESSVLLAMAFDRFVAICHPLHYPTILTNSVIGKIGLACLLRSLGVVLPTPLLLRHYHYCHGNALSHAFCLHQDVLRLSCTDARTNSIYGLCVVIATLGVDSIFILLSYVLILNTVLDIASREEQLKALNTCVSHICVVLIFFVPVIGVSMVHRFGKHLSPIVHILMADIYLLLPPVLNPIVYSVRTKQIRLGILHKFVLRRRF
T13 sequence (Q5JQS5 whole entry): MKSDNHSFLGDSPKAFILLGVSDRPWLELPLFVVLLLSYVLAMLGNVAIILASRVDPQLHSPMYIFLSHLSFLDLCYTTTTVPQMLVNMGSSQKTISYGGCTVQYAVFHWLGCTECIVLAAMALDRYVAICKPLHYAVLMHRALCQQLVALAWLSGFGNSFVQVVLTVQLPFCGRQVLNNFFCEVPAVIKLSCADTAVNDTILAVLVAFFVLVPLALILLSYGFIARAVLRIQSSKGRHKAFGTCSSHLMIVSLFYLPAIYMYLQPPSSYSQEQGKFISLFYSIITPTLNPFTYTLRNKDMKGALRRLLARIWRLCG
T7 sequence (Q8NGH5 whole entry): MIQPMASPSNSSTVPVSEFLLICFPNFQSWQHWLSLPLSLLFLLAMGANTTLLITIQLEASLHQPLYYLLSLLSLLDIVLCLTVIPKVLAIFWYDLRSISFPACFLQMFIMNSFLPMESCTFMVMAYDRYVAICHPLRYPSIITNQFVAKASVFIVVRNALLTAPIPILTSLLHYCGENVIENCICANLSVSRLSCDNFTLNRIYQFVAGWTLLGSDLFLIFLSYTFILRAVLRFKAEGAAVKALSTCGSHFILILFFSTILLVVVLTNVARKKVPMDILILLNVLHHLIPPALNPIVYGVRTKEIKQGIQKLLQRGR
T11 sequence (P23275 whole entry): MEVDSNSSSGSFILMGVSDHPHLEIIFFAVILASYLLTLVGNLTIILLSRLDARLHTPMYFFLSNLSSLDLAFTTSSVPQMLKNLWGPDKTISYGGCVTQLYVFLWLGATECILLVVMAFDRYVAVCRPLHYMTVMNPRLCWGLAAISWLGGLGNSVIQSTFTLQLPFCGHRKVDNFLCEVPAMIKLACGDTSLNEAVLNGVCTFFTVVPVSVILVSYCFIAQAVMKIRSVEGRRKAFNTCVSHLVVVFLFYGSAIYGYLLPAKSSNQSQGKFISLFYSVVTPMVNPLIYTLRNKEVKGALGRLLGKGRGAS

For `CCCC(=O)O` [butyric acid], the negative-log EC50 (pEC50) in test [1] was 4.24.
Consider `CC(C)(O)CCCC1=CCC(C=O)CC1` (stereo not shown) [lyral], for which the results for the pEC50 in test [2], in [3] and in test [4] were 3.14, 4.32 and 4.68, respectively.
The compound `C=CCc1ccc(O)c(OC)c1` [eugenol] had a pEC50 in test [5] of 3.88.
With `CCCCCCCCCC=O` [decyl aldehyde], the pEC50 was 3.72 in [6], 3.24 in test [7] and 3.79 in test [8].
Take `CC1=C(O)C(=O)OC1C` (stereo not shown) [4,5-dimethyl-3-hydroxy-2,5-dihydrofuran-2-one]: the pEC50 in test [9] is 4.73. For the same compound, the LogEC50 entry in test [10] is “Human OR8D1 is hyperfunctional to chimp and macaque OR8D1 orthologs”.
`C=CCOC(=O)Cc1ccccc1` [allyl phenyl acetate] had a pEC50 in test [11] of 5.04.
Turning to `CC(C)[C@H]1CC[C@H](C)C[C@@H]1O` [(+)-menthol], the LogEC50 result in test [12] is “human and chimp OR8K3 orthologs are indistinguishable in their response to (+)-menthol”. Also, the pEC50 in test [13] is 5.04.
Turning to `O=c1ccc2ccccc2o1` [coumarin], the pEC50 is 4.35 in test [14], 5.53 in test [15] and 4.14 in test [16].
Regarding `CCOc1cc(C=O)ccc1O` [ethyl vanillin], the results for the pEC50 in [17], in test [18] and in test [5] were 4.39, 3.27 and 4.38, respectively.
Take `C=CCc1ccc(OC)c(OC)c1` [eugenol methyl ether]: the LogEC50 entry in test [19] was “human OR5K1 is hyperfunctional to both chimp and macaque OR5K1 orthologs”.
Take `CCCCCCCCO` [1-octanol]: the pEC50 is 5.73 in test [20], 3.95 in [21] and 5.13 in test [22]. Moreover, the LogEC50 result in test [23] was “OR2J2 orthologs and 2J subfamily members to 1-octanol”.
Regarding `CC(=O)OC/C=C(\C)CCC=C(C)C` [geranyl acetate], the pEC50 was 3.79 in test [20], 3.32 in test [21], 5.02 in test [24] and 4.37 in [22].
